According to patent US20110257171A1, “NOVEL IMIDAZO[1,2-A]PYRIDINE DERIVATIVES, METHOD FOR THE PREPARATION THEREOF, USE THEREOF AS MEDICAMENTS, PHARMACEUTICAL COMPOSITIONS AND NOVEL USE IN PARTICULAR AS MET INHIBITORS” (SANOFI-AVENTIS, priority 2008, published 2011):
pIC50: −log10 of the molar value. Counter-ions that a name gives are not always drawn.

Legend:
[1] = test system: HCT116 cells and MKN45 cells; test: Test C: measurement of cell proliferation by 14C-thymidine pulse; assay type: cell-based; settings: 14C-thymidine incorporation, 96 h of treatment; cell line not given
Procedure: The cells are seeded into Cytostar 96-well plates in 180 μl for 4 hours at 37° C. and 5% CO2: HCT116 cells in a proportion of 2500 cells per well in DMEM medium+10% foetal calf serum+1% L-glutamine, and MKN45 cells in a proportion of 7500 cells per well in RPMI medium+10% foetal calf serum+1% L-glutamine. After these 4 hours of incubation, the products are added in 10 μl as a […] concentrated solution according to the dilution method mentioned for the ELISA. The products are tested at 10 concentrations in duplicate from 10 000 nM to 0.3 nM with an increment of 3.
After treatment for 72 h, 10 μl of ^14C-thymidine at 10 μCi/ml are added so as to obtain 0.1 μCi per well. The ^14C-thymidine incorporation is measured on a Micro-Beta machine (Perkin-Elmer) after 24 hours of pulse and 96 h of treatment.
All the steps of the assay are automated on BIOMEK 2000 or TECAN stations.

MET [2] = target: T1, MET (Homo sapiens, UniProt P08581); test: Test B: inhibition of the autophosphorylation of MET, ELISA technique (pppY1230, 1234, 1235) in MKN45 cells; assay type: cell-based; set-up: endogenous in cells; host or cells: MKN45 cells; settings: 1 h treatment, phosphoMET ELISA
Procedure: B) Test B: Inhibition of the Autophosphorylation of Met; ELISA Technique (pppY1230, 1234, 1235) a) Cell lysates: MKN45 cells are seeded into 96-well plates (cell coat BD polylysine) at 20 000 cells/well in 200 μl of RPMI medium+10% FCS+1% L-glutamine. They are left to adhere for 24 hours in an incubator.
The cells are treated the day after seeding with the products at 6 concentrations, in duplicate, for 1 h. At least 3 control wells are treated with the same final amount of DMSO.
Product dilution: Stock at 10 mM in pure DMSO—range from 10 mM to 30 μM with an increment of 3 in pure DMSO—intermediate dilutions to 1/50 in culture medium and then removal of 10 μl added directly to the cells (200 μl): final range of 10 000 to 30 nM.
At the end of the incubation, the supernatant is carefully removed and rinsing is performed with 200 μl of PBS. Next, 100 μl of lysis buffer are placed directly in the wells on ice and incubated at 4° C. for 30 minutes. Lysis buffer: 10 mM Tris HCl, pH 7.4, 100 mM NaCl, 1 mM EDTA, 1 mM EGTA, 1% Triton X-100, 10% glycerol, 0.1% SDS, 0.5% deoxycholate, 20 mM NaF, 2 mM Na3VO4, 1 mM PMSF and cocktail of antiproteases.
The 100 μl of lysates are transferred into a V-bottomed polypropylene plate and the ELISA is performed immediately, or the plate is frozen at −80° C.
70 μl of kit dilution buffer+30 μL of cell lysate, or 30 μl of lysis buffer for the blanks, are added to each well of the kit plate. Incubation is carried out for 2 h with gentle agitation at ambient temperature.
The wells are rinsed 4 times with 400 μl of kit washing buffer. Incubation is carried out with 100 μl of anti-phospho MET antibody for 1 hour at ambient temperature.
The wells are rinsed 4 times with 400 μl of kit washing buffer. Incubation is carried out with 100 μl of anti-rabbit HRP antibody for 30 minutes at ambient temperature (except for the wells of chromogen alone).
The wells are rinsed 4 times with 400 μl of kit washing buffer. 100 μL of chromogen are introduced and incubation is carried out for 30 minutes in the dark at ambient temperature.
The reaction is stopped with 100 μl of stop solution. The plate is read without delay at […], 0.1 second on a Wallac Victor plate reader.
Target sequence in this assay (P08581 25-1390): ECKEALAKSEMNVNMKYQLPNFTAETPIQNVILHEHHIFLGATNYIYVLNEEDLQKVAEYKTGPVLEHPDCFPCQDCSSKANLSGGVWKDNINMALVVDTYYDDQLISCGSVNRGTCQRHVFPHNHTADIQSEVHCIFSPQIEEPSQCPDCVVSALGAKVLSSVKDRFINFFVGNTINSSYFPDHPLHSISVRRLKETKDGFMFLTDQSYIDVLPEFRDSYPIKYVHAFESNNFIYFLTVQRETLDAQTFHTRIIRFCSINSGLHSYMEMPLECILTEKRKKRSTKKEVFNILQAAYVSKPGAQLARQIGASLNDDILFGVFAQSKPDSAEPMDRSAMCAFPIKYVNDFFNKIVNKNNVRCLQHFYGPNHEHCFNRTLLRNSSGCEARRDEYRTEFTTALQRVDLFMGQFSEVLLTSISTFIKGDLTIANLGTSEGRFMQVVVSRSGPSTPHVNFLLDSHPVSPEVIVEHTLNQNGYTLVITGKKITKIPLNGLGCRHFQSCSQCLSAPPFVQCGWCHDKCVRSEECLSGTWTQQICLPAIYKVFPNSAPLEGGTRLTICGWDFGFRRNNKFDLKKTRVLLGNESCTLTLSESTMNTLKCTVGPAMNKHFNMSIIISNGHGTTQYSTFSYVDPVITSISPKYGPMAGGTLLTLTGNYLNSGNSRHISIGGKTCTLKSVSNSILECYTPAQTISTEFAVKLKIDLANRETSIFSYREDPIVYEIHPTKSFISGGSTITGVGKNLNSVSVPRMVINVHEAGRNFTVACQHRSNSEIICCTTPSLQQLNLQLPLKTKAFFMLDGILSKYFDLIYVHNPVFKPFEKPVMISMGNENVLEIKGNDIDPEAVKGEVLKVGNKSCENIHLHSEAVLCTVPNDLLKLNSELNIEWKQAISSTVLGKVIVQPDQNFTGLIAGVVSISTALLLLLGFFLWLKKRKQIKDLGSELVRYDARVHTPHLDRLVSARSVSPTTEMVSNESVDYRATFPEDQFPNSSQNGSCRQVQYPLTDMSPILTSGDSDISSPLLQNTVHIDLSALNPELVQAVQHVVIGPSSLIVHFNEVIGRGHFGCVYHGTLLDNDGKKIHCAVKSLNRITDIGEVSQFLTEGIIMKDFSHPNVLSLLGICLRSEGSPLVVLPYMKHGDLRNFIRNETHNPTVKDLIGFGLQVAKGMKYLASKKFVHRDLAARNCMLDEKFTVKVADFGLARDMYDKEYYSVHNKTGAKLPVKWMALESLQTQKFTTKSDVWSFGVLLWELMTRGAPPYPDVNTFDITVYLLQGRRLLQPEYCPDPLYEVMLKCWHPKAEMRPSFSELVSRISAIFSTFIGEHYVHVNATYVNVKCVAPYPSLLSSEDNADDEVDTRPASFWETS

MET [3] = target: T1, MET; test: Test A: HTRF MET assay in 96-well format; assay type: biochemical; set-up: The His-Tev-MET (956-1390) recombinant DNA in pFastBac (Invitrogen) is transfected into insect cells; His (N, cleaved yes); Tev cleavage site (N); made in house; host or cells: SF21 insect cells (baculovirus, pFastBac); settings: MET 5 nM, 10 μM ATP
Procedure: The His-Tev-MET (956-1390) recombinant DNA in pFastBac (Invitrogen) is transfected into insect cells and, after several viral amplification steps, the final baculovirus stock is tested for the expression of the protein of interest.
After infection for 72 h at 27° C. with the recombinant virus, SF21 cell cultures are harvested by centrifugation and the cell pellets are stored at −80° C.
The cell pellets are resuspended in the lysis buffer (buffer A [50 mM HEPES, pH 7.5, 250 mM NaCl, 10% glycerol, 1 mM TECP]; +cocktail of protease inhibitors, Roche Diagnostics, without EDTA, ref 1873580), stirred at 4° C. until the mixture is homogeneous, and then lysed mechanically using a “Dounce” type apparatus.
After centrifugation, the lysis supernatant is incubated for 2 h at 4° C. with nickel chelate resin (His-Trap 6 Fast Flow™, GE HealthCare). After washing with 20 volumes of buffer A, the suspension is packed into a column, and the proteins are eluted with a gradient of buffer B (buffer A+290 mM imidazole).
The fractions containing the protein of interest, for the purpose of electrophoretic analysis (SDS PAGE), are combined, concentrated by ultrafiltration (10 kDa cut-off) and injected onto an exclusion chromatography column (Superdex® 200, GE HealthCare) equilibrated in buffer A.
After enzymatic cleavage of the histidine tag, the protein is reinjected onto a new IMAC nickel chelate chromatography column (His-Trap 6 Fast Flow™ GE HealthCare) equilibrated in buffer A. The fractions eluted with a gradient of buffer B and containing the protein of interest after electrophoresis (SDS PAGE) are finally combined and stored at −80° C.
For the production of autophosphorylated protein, the previous fractions are incubated for 1 h at ambient temperature after the addition of 2 mM ATP, 2 mM MgCl2 and 4 mM Na3VO4. After the reaction has been stopped with 5 mM of EDTA, the reaction mixture is injected onto a HiPrep desalifying column (GE HealthCare) pre-equilibrated in buffer A+4 mM Na3VO4, and the fractions containing the protein of interest (SDS PAGE analysis) are combined and stored at −80° C. The degree of phosphorylation is verified by mass spectrometry (LC-MS) and by peptide mapping.
MET at a final concentration of 5 nM is incubated in a final volume of 50 μl of enzymatic reaction in the presence of the test molecule (for a final concentration range of from 0.17 nM to 10 μM, 3% DMSO final concentration) in 10 mM MOPS buffer, pH 7.4, 1 mM DTT, 0.01% Tween 20. The reaction is initiated with the substrate solution to obtain final concentrations of 1 μg/ml poly-(GAT), 10 μM ATP and 5 mM MgCl2. After incubation for 10 min at ambient temperature, the reaction is stopped with a 30 μl mix so as to obtain a final solution of 50 mM Hepes, pH 7.5, 500 mM potassium fluoride, 0.1% BSA and 133 mM EDTA in the presence of 80 ng of streptavidin 61 SAXLB Cis-Bio Int. and 18 ng of anti-phosphotyrosine Mab PT66-Europium Cryptate per well. After incubation for 2 hours at ambient temperature, the reading is taken at 2 wavelengths, 620 nm and 665 nm, on a reader for the TRACE/HTRF technique, and the % inhibition is calculated from the 665/620 ratios.
Target sequence in this assay (P08581 956-1390): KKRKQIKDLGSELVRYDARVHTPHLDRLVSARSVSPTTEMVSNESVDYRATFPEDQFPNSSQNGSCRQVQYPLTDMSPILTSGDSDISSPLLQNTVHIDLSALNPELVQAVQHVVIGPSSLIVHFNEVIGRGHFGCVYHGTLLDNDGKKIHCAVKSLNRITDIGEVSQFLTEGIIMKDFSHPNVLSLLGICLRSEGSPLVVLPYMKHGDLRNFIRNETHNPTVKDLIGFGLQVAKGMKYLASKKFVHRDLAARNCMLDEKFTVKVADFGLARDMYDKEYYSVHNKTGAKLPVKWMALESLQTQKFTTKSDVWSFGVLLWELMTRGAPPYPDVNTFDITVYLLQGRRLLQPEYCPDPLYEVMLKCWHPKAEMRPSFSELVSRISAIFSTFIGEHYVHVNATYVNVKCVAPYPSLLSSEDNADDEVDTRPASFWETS

| melting point [°C] | pIC50 [1] | pIC50 (MET [2]) | pIC50 (MET [3]) | Compound |
| --- | --- | --- | --- | --- |
| 230 | – | – | – | O=C(Nc1nc2ccc(Sc3cnc4ccc(-c5cnn(C6CCNCC6)c5)cn34)cc2s1)C1CC1 (as salt: hydrochloride) [Example 12, N-[6-({6-[1-(piperidin-4-yl)1H-pyrazol-4-yl]imidazo[1,2-a]pyridin-3-yl}sulphanyl)-1,3-benzothiazol-2-yl]cyclopropanecarboxamide] |
| > 260 | > 6.00 | > 7.00 | > 7.00 | Cc1ccc(-c2ccc3ncc(Sc4ccc5nc(NC(=O)C6CC6)sc5c4)n3c2)cc1F [Example 10, N-(6-{[6-((3-fluoro-4-methyl)phenyl)imidazo[1,2-a]pyridin-3-yl]sulphanyl}-1,3-benzothiazol-2-yl)cyclopropanecarboxamide] |
| 247 | > 6.00 | > 7.00 | > 7.00 | CC(C)(C)OC(=O)N1CCC(n2cc(-c3ccc4ncc(Sc5ccc6nc(NC(=O)C7CC7)sc6c5)n4c3)cn2)CC1 [Example 11, tert-butyl 4-{4-[3-({2-[(cyclopropylcarbonyl)amino]-1,3-benzothiazol-6-yl}sulphanyl)imidazo[1,2-a]pyridin-6-yl]-1H-pyrazol-1-yl}piperidine-1-carboxylate] |
| – | > 6.00 | > 7.00 | > 7.00 | O=C(Nc1nc2ccc(Sc3cnc4ccc(-c5cnn(C6CCNCC6)c5)cn34)cc2s1)C1CC1 [Example 12, N-[6-({6-[1-(piperidin-4-yl)1H-pyrazol-4-yl]imidazo[1,2-a]pyridin-3-yl}sulphanyl)-1,3-benzothiazol-2-yl]cyclopropanecarboxamide] |

More lines, now with the values behind:

| Compound | melting point [°C] | pIC50 [1] | pIC50 (MET [2]) | pIC50 (MET [3]) |
| --- | --- | --- | --- | --- |
| O=C(Nc1nc2ccc(Sc3cnc4ccccn34)cc2s1)C1CC1 [Example 1, N-{[6-(imidazo[1,2-a]pyridin-3-yl)sulphanyl]-1,3-benzothiazol-2-yl}cyclopropanecarboxamide] | – | > 6.00 | > 7.00 | > 7.00 |
| Nc1nc2ccc(Sc3cnc4ccc(-c5ccc(F)cc5)cn34)cc2s1 [Example 2, 6-{[6-(4-fluorophenyl)imidazo[1,2-a]pyridin-3-yl]sulphanyl}-1,3-benzothiazol-2-amine] | 258 | > 6.00 | < 6.30 | > 7.00 |
| O=C(Nc1nc2ccc(Sc3cnc4ccc(-c5ccc(F)cc5)cn34)cc2s1)C1CC1 [Example 3, N-(6-{[6-(4-fluorophenyl)imidazo[1,2-a]pyridin-3-yl]sulphanyl}-1,3-benzothiazol-2-yl)cyclopropanecarboxamide] | 265 | > 6.00 | > 7.00 | > 7.00 |
| CC(=O)Nc1nc2ccc(Sc3cnc4ccc(-c5ccc(F)cc5)cn34)cc2s1 [Example 4, N-(6-{[6-(4-fluorophenyl)imidazo[1,2-a]pyridin-3-yl]sulphanyl}-1,3-benzothiazol-2-yl)acetamide] | – | > 6.00 | > 7.00 | > 7.00 |
| COCCNC(=O)Nc1nc2ccc(Sc3cnc4ccc(-c5ccc(F)cc5)cn34)cc2s1 [Example 5, 1-(6-{[6-(4-fluorophenyl)imidazo[1,2-a]pyridin-3-yl]sulphanyl}-1,3-benzothiazol-2-yl)-3-(2-methoxyethyl)urea] | > 260 | > 6.00 | > 7.00 | > 7.00 |
| O=C(NCCN1CCOCC1)Nc1nc2ccc(Sc3cnc4ccc(-c5ccc(F)cc5)cn34)cc2s1 [Example 6, 1-(6-{[6-(4-fluorophenyl)imidazo[1,2-a]pyridin-3-yl]sulphanyl}-1,3-benzothiazol-2-yl)-3-[2-(morpholin-4-yl)ethyl]urea] | – | > 6.00 | > 7.00 | > 7.00 |
| Cn1cc(-c2ccc3ncc(Sc4ccc5nc(NC(=O)C6CC6)sc5c4)n3c2)cn1 [Example 7, N-(6-{[6-(1-methyl-1H-pyrazol-4-yl)imidazo[1,2-a]pyridin-3-yl]sulphanyl}-1,3-benzothiazol-2-yl)cyclopropanecarboxamide] | – | > 6.00 | > 7.00 | > 7.00 |
| O=C(Nc1nc2ccc(Sc3cnc4ccc(-c5cn[nH]c5)cn34)cc2s1)C1CC1 [Example 8, N-(6-{[6-(1H-pyrazol-4-yl)imidazo[1,2-a]pyridin-3-yl]sulphanyl}-1,3-benzothiazol-2-yl)cyclopropanecarboxamide] | – | > 6.00 | > 7.00 | > 7.00 |
| O=C(Nc1nc2ccc(Sc3cnc4ccc(-c5cccc(F)c5)cn34)cc2s1)C1CC1 [Example 9, N-(6-{[6-(3-fluorophenyl)imidazo[1,2-a]pyridin-3-yl]sulphanyl}-1,3-benzothiazol-2-yl)cyclopropanecarboxamide] | > 260 | > 6.00 | > 7.00 | > 7.00 |
